Assay results as given in patent US6162832A, “2-Phenoxyaniline derivatives” (Taisho Pharmaceutical Co., Inc., priority 1997, dated 2000).
Counter-ions that a name gives are not always drawn.

Target: T1, Na^+ /Ca^2+ Exchange System (Canis lupus familiaris, UniProt P23685)
T1 construct: Sarcolemmal vesicles prepared from the removed dog ventricular muscles; from tissue; host or cells: dog ventricular muscle, sarcolemmal vesicles
Test: Inhibitory Action on a Na^+ /Ca^2+ Exchange System using Cardiac Sarcolemmal Vesicles
Type: biochemical
Settings: 10 s; 1 μM test drug; dog ventricular sarcolemmal vesicles; 45Ca uptake, 10 seconds; remaining activity vs vehicle-treated group; read-out: Na^+ /Ca^2+ exchange activity (% of control)
Procedure: Inhibitory Action on a Na^+ /Ca^2+ Exchange System using Cardiac Sarcolemmal Vesicles Sarcolemmal vesicles prepared from the removed dog ventricular muscles according to the method described in the literature (L. R. Jones, Methods, Enzymol., 1988, 157, pp. 85) were used. A Na^+ /Ca^2+ exchange activity using the sarcolemmal vesicles was measured according to the method described in the literature (K. D. Philipson, et al., J. Biol. Chem., 1980, 255, pp. 6880). First, the sarcolemmal vesicles were suspended in a sodium-containing solution [160 mM sodium chloride, 20 mM Tris-hydrochloric acid (pH 7.4)] to make up to a protein concentration of 1.5 mg/ml, and allowed to stand for an hour to load Na^+ in the sarcolemmal vesicles. To 2.5 μl of the sarcolemmal vesicles was added 125 μl of a [^45 Ca]-calcium chloride solution [20 μM [^45 Ca]-calcium chloride, 160 mM potassium chloride and 20 mM Mops-Tris (pH 7.4)], and after 10 seconds, 900 μl of an ice-cooled lanthanum chloride solution [10 mM lanthanum chloride, 160 mM potassium chloride and 20 mM Mops-Tris (pH 7.4)] was added. The sarcolemmal vesicles were recovered on a nitrocellulose filter by suction filtration and washed three times with 900 μl of a lanthanum chloride solution. The […] of Ca^2+ uptake in the sarcolemmal vesicles was determined by measuring a ^45 Ca radioactivity by a scintillator. In addition, a Na^+ /Ca^2+ exchange activity-independent Ca^2+ uptake in the sarcolemmal vesicles was determined by carrying out the same procedure using a potassium-containing solution [160 mM potassium chloride, 20 mM Tris-hydrochloric acid (pH 7.4)] instead of the sodium-containing solution. The test compound was used as a dimethyl sulfoxide solution thereof, and its inhibitory effect was evaluated in comparison with the vehicle-treatedgroup.

Row | Structure (SMILES) | remaining activity at 1 µM
1 | Nc1ccccc1Oc1ccc(OCc2cccc(F)c2F)cc1 [Compound 3, 2-[4-(2,3-Difluorobenzyloxy)phenoxy]aniline hydrochloride] | 38%
2 | Nc1ccccc1Oc1ccc(OCc2cc(F)ccc2F)cc1 [Compound 4, 2-[4-(2,5-Difluorobenzyloxy)phenoxy]aniline hydrochloride] | 27%
3 | Nc1ccccc1Oc1ccc(OCc2c(F)cccc2F)cc1 [Compound 5, 2-[4-(2,6-Difluorobenzyloxy)phenoxy]aniline hydrochloride] | 43%
4 | CCOc1ccc(Oc2ccc(OCc3cc(F)ccc3F)cc2)c(N)c1 [Compound 6, 2-[4-(2.5-Difluorobenzyloxy)phenoxy]-5-ethoxyaniline hydrochloride] | 39%
5 | CCOc1ccc(Oc2ccc(OCc3c(F)cccc3F)cc2)c(N)c1 [Compound 7, 2-[4-(2.6-Difluorobenzyloxy)phenoxy]-5-ethoxyaniline hydrochloride] | 33%
6 | Nc1ccccc1Oc1ccc(OCc2ccc(F)cc2F)cc1 [Compound 8, 2-[4-(2,4-Difluorobenzyloxy)phenoxy]aniline hydrochloride] | 47%
7 | CCOc1ccc(Oc2ccc(OCc3cccc(F)c3F)cc2)c(N)c1 [Compound 10, 2-[4-(2,3-Difluorobenzyloxy)phenoxy]-5-ethoxyaniline hydrochloride] | 45%
